The values below come from ChEMBL document CHEMBL5537196, “Discovery of KIN-3248, An Irreversible, Next Generation FGFR Inhibitor for the Treatment of Advanced Tumors Harboring FGFR2 and/or FGFR3 Gene Alterations” (J Med Chem, 2024).

Series [1] has as its system SNU-16. Description: Antiproliferative activity against human SNU-16 cells assessed as inhibition of cell growth incubated for 5 days by Cell-titer glo assay. To be noted: SNU-16, 120 h.
Series [2] in a line: Cmax in Sprague-Dawley rat at 15 mg/kg,po administrated at 0.25 to 24 hrs by LC-MS/MS analysis. It is filed as ADME, organism-based. To be noted: in vivo, time 0.25-24 hrs.
Series [3] is described as follows: Total clearance in Sprague-Dawley rat at 5 mg/kg,iv administrated at 0.25 to 24 hrs by LC-MS/MS analysis. It is filed as ADME, organism-based. To be noted: in vivo, time 0.25-24 hrs.
Series [4] is described as follows: Oral bioavailability in Sprague-Dawley rat at 15 mg/kg administrated at 0.25 to 24 hrs by LC-MS/MS analysis. It is filed as ADME, organism-based. To be noted: in vivo, time 0.25-24 hrs.
Series [5] concerns CC-LP-1. Put plainly: Antiproliferative activity against human CC-LP-1 cells expressing FGFR2 N550K mutant assessed as inhibition of cell growth incubated for 3 days by Cell-titer glo assay. The following applies: CC-LP-1, 72 h.
Series [6] in a line: AUC (0 to 24 hrs) in Beagle dog at 10 mg/kg,po administrated at 0.25 to 24 hrs by LC-MS/MS analysis. The format is ADME, organism-based, Canis lupus familiaris. To be noted: in vivo, time 0.25-24 hrs.
The subject of series [7] is CC-LP-1. Put plainly: Antiproliferative activity against human CC-LP-1 cells assessed as inhibition of cell growth incubated for 3 days by Cell-titer glo assay. To be noted: CC-LP-1, 72 h.
The nature of series [8]: AUC (0 to 24 hrs) in Sprague-Dawley rat at 15 mg/kg,po administrated at 0.25 to 24 hrs by LC-MS/MS analysis. It is filed as ADME, organism-based. The following applies: in vivo, time 0.25-24 hrs.
A short description of series [9]: Oral bioavailability in Beagle dog at 10 mg/kg administrated at 0.25 to 24 hrs by LC-MS/MS analysis. To be noted: in vivo, time 0.25-24 hrs. It is filed as ADME, organism-based, Canis lupus familiaris.
In series [10] the test system is RT-112. Put plainly: Antiproliferative activity against human RT-112 cells expressing FGFR3 assessed as inhibition of cell growth incubated for 5 days by Cell-titer glo assay. The following applies: RT-112, 120 h.
Series [11] is described as follows: Half life in Sprague-Dawley rat at 5 mg/kg,iv administrated at 0.25 to 24 hrs by LC-MS/MS analysis. It is filed as ADME, organism-based. To be noted: in vivo, time 0.25-24 hrs.
The nature of series [12]: Antiproliferative activity against human ICC13-7 cells expressing FGFR2 V565F mutant assessed as inhibition of cell growth incubated for 10 days by Cell-titer glo assay. The following applies: ICC13-7, 240 h.
Series [13] concerns CC-LP-1. Description: Antiproliferative activity against human CC-LP-1 cells expressing FGFR2 V565F mutant assessed as inhibition of cell growth incubated for 3 days by Cell-titer glo assay. To be noted: CC-LP-1, 72 h.
Series [14] can be described thus: Antiproliferative activity against human ICC13-7 cells expressing FGFR2 N550K mutant assessed as inhibition of cell growth incubated for 10 days by Cell-titer glo assay. To be noted: ICC13-7, 240 h.
The nature of series [15]: Antiproliferative activity against human ICC13-7 cells assessed as inhibition of cell growth incubated for 3 days by Cell-titer glo assay. The following applies: ICC13-7, 72 h.
Series [16] relates to RT-112. Put plainly: Antiproliferative activity against human RT-112 cells expressing FGFR3 V555M mutant assessed as inhibition of cell growth incubated for 5 days by Cell-titer glo assay. To be noted: RT-112, 120 h.
A short description of series [17]: Half life in Beagle dog at 5 mg/kg,iv administrated at 0.25 to 24 hrs by LC-MS/MS analysis. To be noted: in vivo, time 0.25-24 hrs. The format is ADME, organism-based, Canis lupus familiaris.
The subject of series [18] is RT-112. Put plainly: Antiproliferative activity against human RT-112 cells expressing FGFR3 K650M mutant assessed as inhibition of cell growth incubated for 5 days by Cell-titer glo assay. The following applies: RT-112, 120 h.
The test system of series [19] is RT-112. Description: Antiproliferative activity against human RT-112 cells expressing FGFR3 N540K mutant assessed as inhibition of cell growth incubated for 5 days by Cell-titer glo assay. The following applies: RT-112, 120 h.
Series [20] in a line: Total clearance in Beagle dog at 5 mg/kg,iv administrated at 0.25 to 24 hrs by LC-MS/MS analysis. The format is ADME, organism-based, Canis lupus familiaris. To be noted: in vivo, time 0.25-24 hrs.
Series [21] can be described thus: Cmax in Beagle dog at 10 mg/kg,po administrated at 0.25 to 24 hrs by LC-MS/MS analysis. It is filed as ADME, organism-based, Canis lupus familiaris. To be noted: in vivo, time 0.25-24 hrs.
Series [22] can be described thus: Intrinsic clearance in human hepatocyte measured per 10^6 cells. The format is ADME, cell-based. The following applies: hepatocytes, read-out: CLH.
Series [23] can be described thus: Intrinsic clearance in human liver microsomes. It is filed as ADME, Microsome. To be noted: read-out: CLH.
Series [24] concerns RT-112. Description: Antiproliferative activity against human RT-112 cells assessed as inhibition of cell growth incubated for 5 days by Cell-titer glo assay. The following applies: RT-112, 120 h.
Series [25] is described as follows: Cmax in Beagle dog at 15 mg/kg,po administrated at 0.25 to 24 hrs by LC-MS/MS analysis. It is filed as ADME, organism-based, Canis lupus familiaris. To be noted: in vivo, time 0.25-24 hrs.
Series [26] can be described thus: AUC (0 to 24 hrs) in Beagle dog at 15 mg/kg,po administrated at 0.25 to 24 hrs by LC-MS/MS analysis. It is filed as ADME, organism-based, Canis lupus familiaris. To be noted: in vivo, time 0.25-24 hrs.
Series [27] is described as follows: Oral bioavailability in Beagle dog at 15 mg/kg administrated at 0.25 to 24 hrs by LC-MS/MS analysis. The following applies: in vivo, time 0.25-24 hrs. The format is ADME, organism-based, Canis lupus familiaris.
Series [28] relates to CC-LP-1. Put plainly: Antiproliferative activity against human CC-LP-1 cells expressing FGFR2 N550H mutant assessed as inhibition of cell growth incubated for 3 days by Cell-titer glo assay. It is filed as functional, cell-based. The following applies: CC-LP-1, 72 h.
Series [29] can be described thus: Antitumor activity against patient derived STO357 PDX cells xenografted in mouse assessed as tumor growth inhibition at 6 mg/kg,po administrated once daily for 3 weeks relative to control. The following applies: Homo sapiens, 504 h, read-out: TGI.
Series [30] can be described thus: Antitumor activity against patient derived STO357 PDX cells xenografted in mouse assessed as tumor growth inhibition at 1 mg/kg,po administrated once daily for 3 weeks relative to control. To be noted: Homo sapiens, 504 h, read-out: TGI. It is filed as functional.

Where only a bound is given, the exact number is not on record here.

With `C=CC(=O)N1C[C@@H](n2nc(C#Cc3cc4ncn(C5CC5)c4cc3Cl)c(C(N)=O)c2NC)C[C@@H]1COC`, the IC50 in series [1] was determined as 6 nM; in [5] it was 6.5 nM; in [7], 4.3 nM; in series [10], 11.2 nM; in [12] it was 0.9 nM; in [13], 1.8 nM. Further, the IC50 in [14] worked out at 6.1 nM; in [15] it was 2.2 nM; in series [16], 19.5 nM; in series [18], 12.8 nM; in series [19], 26.3 nM; in [24], 7.2 nM. Moreover, the Cmax was 519 ng/mL in series [2] and 289 ng/mL in series [21]. In addition, the clearance in series [3] turned out to be 26.8 mL/min/kg; in series [20] it was 44.4 mL/min/kg. Further, the values for the bioavailability in series [4] and in series [9] were 16.4% and 13.1%, respectively. In addition, the AUC(0-t) in series [6] was determined as 498 ng·h/mL; in [8] it was 1500 ng·h/mL. Also, the half-life is 370 min in [11] and 296 min in series [17]. The hepatocyte CLint in [22] is 14.4 µL/min/1e6 cells. Further, the microsomal CLint in [23] is 106 µL/min/mg.
Turning to `C=CC(=O)N1C[C@@H](n2nc(C#Cc3ccc4c(c3)ncn4C3CC3)c(C(N)=O)c2NC)C[C@@H]1COC`, the Cmax is 1720 ng/mL in series [2] and 124 ng/mL in [21]. Also, the values for the clearance in [3] and in [20] were 26.1 mL/min/kg and 31.1 mL/min/kg, respectively. The bioavailability in series [4] worked out at 31.4%; in series [9], 4.6%. The exposure AUC(0-t) in series [6] was determined as 312 ng·h/mL; in series [8], 3020 ng·h/mL. Also, the half-life in [11] is 293 min; in [17] it was 388 min. In addition, the hepatocyte CLint in series [22] came to 6.6 µL/min/1e6 cells. Moreover, the microsomal CLint in [23] turned out to be 47.4 µL/min/mg.
For the molecule `C=CC(=O)N1C[C@@H](n2nc(C#Cc3cc4ncn(C5CC5)c4cc3F)c(C(N)=O)c2NC)C[C@@H]1COC`, the half-maximal inhibitory concentration (IC50) in series [1] was determined as 4 nM; in [5], 3.6 nM; in [7] it was 2.3 nM; in [12], 1.4 nM; in series [13], 1.5 nM; in series [14], 3.5 nM. Further, in series [15], the IC50 is 1.4 nM. In addition, the Cmax was found to be 760 ng/mL in [2] and 770 ng/mL in series [25]. Also, the clearance in series [3] worked out at 25 mL/min/kg; in series [20], 31.8 mL/min/kg. The bioavailability came out at 27% in series [4] and 23.5% in [27]. The values for the AUC(0-t) in [8] and in series [26] were 2620 ng·h/mL and 1700 ng·h/mL, respectively. Also, the half-life in series [11] is 531 min; in series [17], 684 min. The hepatocyte CLint in [22] turned out to be 12 µL/min/1e6 cells. For the same molecule, the microsomal CLint in series [23] was 97.1 µL/min/mg.
On to `COc1cc(OC)cc(N(CCNC(C)C)c2ccc3ncc(-c4cnn(C)c4)nc3c2)c1` [ERDAFITINIB], for which the IC50 in [1] was 2.7 nM; in series [5], 94.8 nM; in series [7], 2.3 nM; in series [10], 2.4 nM; in series [12], more than 2800 nM; in series [13] it was 1370 nM. Besides, the IC50 worked out at 131 nM in series [14]; 1.1 nM in series [15]; 603 nM in series [16]; 39 nM in series [18]; 107 nM in [19]; 10.8 nM in series [28]. In addition, in [24], the IC50 is 1.3 nM.
For `C=CC(=O)N1CC[C@H](n2nc(C#Cc3cc(OC)cc(OC)c3)c3c(N)ncnc32)C1` [FUTIBATINIB], the IC50 in [1] worked out at 4.7 nM; in [5], 5.5 nM; in series [7] it was 1.3 nM; in series [10] it was 19.6 nM; in series [12], 143 nM; in series [13] it was 105 nM. Besides, the IC50 in series [14] worked out at 13.8 nM; in series [15] it was 1.8 nM; in series [16], 390 nM; in series [18] it was 74.3 nM; in series [19] it was 73.4 nM; in series [28] it was 1.4 nM. Besides, the IC50 in series [24] amounted to 6.7 nM. For the same molecule, the inhibition in vivo at 6 mg/kg in series [29] amounted to 48%.
Regarding `CCN1CCN(c2ccc(Nc3cc(N(C)C(=O)Nc4c(Cl)c(OC)cc(OC)c4Cl)ncn3)cc2)CC1` [INFIGRATINIB], the IC50 in series [1] is 12.4 nM; in series [5], 432 nM; in [7], 7.3 nM; in [10] it was 10 nM; in series [12] it was more than 1890 nM; in series [13], more than 2280 nM. The 50% inhibitory concentration (IC50) in series [14] is 352 nM; in series [15], 7.6 nM; in series [16], 352 nM; in series [18], 218 nM; in series [19] it was 777 nM; in [28] it was 28.8 nM. Further, the IC50 in series [24] is 6.2 nM.
Regarding `CCN1C(=O)N(c2c(F)c(OC)cc(OC)c2F)Cc2cnc3[nH]c(CN4CCOCC4)cc3c21` [PEMIGATINIB], the IC50 in series [1] is 3.9 nM; in series [5], 493 nM; in series [7], 3.6 nM; in [10], 6 nM; in [12] it was more than 2350 nM; in series [13], 1630 nM. The IC50 in series [14] is 416 nM; in series [15], 2.6 nM; in [16] it was more than 1150 nM; in series [18] it was 174 nM; in [19], 1880 nM; in series [28], 48.7 nM. Also, the IC50 in series [24] was 3.3 nM. Moreover, the inhibition in vivo at 1 mg/kg in series [30] stood at 57%.
